Our source for the melting point values is a melting point compilation (Tetko et al.; mined from patent text by program, amines drawn as free bases though some values may be those of a salt).

`CCOC(=O)c1ncc(Cl)cc1NC(C)=O` came in with a melting point of 98 to 100 °C.

Consider `COc1ccc(CN2CCSC2=O)cc1`, for which the melting point fell in the range of 84 to 86 °C.

`CCN1C(=O)C(C)(C)C(=O)N(C)c2cc(CN(CCn3c(=O)ccc4ccccc43)Cc3ccc(OC)nc3C)ccc21` came in with a melting point of 143 to 144 °C.

As to `O=[N+]([O-])c1cc(-c2ccoc2)ccc1Nc1cccc(-n2cccc2)c1`, the melting point was 129 to 131 °C.

Turning to `CC(C)NCC(O)COc1ccc(OCCn2cccn2)cc1` (stereo not given), the melting point lay within 37 to 39 °C.

Take `Clc1nc2c(c(N[C@@H]3CCC[C@H]3OCc3ccccc3)n1)SCC2`: the melting point was 157 to 158 °C.

In turn, `O=C(O)c1cc([N+](=O)[O-])ccc1Nc1ccc(CCc2ccc(Cl)c(Cl)c2)cc1` registered a melting point of 214 to 217 °C.

In the case of `CCOP(=O)(OCC)C(CCc1cc(C)nc2cc(OC(=O)c3ccccc3)nn12)P(=O)(OCC)OCC`, the melting point was 56 to 57 °C.

Molecule `CC(C)(C)OC(=O)N1C[C@@H](P(C2CCCCC2)C2CCCCC2)C[C@H]1CP(c1ccccc1)c1ccccc1` registered a melting point of 171 to 174 °C.

`CC1CCC(c2ccc(OCC(=O)O)c(Cl)c2Cl)=CC1=O` (stereo not given) showed a melting point of 183 to 185 °C.

In turn, `O=C1CC(c2ccccc2)(c2ccncc2)Oc2ccccc21` (stereo not given) gave a melting point of 123 to 130 °C.

`CC1CCCC(C)C1=CC1C(C(=O)O)C1(C)C` (stereo not given) came in with a melting point of 96 °C.

Regarding `Cc1cccc(-c2n[nH]cc2-c2ccc(F)c(-c3ccc(S(N)(=O)=O)c(F)c3)c2)n1`, the melting point lay within 119 to 121 °C.

In turn, `O=C(NCCN1CCCCC1)c1nc(NCC(c2ccccc2)c2ccccc2)c2ncn([C@@H]3O[C@H](CO)[C@@H](O)[C@H]3O)c2n1` gave a melting point of 182 °C.

In turn, `CCCCOc1ccc2cc(O)ccc2c1` yielded a melting point of 100 to 102 °C.

Turning to `CC1(CSc2ccccc2)COC2(CCCCCCCCCCC2)OO1` (stereo not given), the melting point came to 89 °C.

Molecule `CCCCCCCCCCCCCCN(c1ccccc1)c1snnc1C(N)=O` gave a melting point of 79 to 81 °C.

`CCCc1c(OCc2ccc(/C=C3\SC(=S)NC3=O)cc2)ccc(C(C)=O)c1O`: the melting point fell in the range of 236 to 238 °C.

As to `O=C(OCc1ccccc1)c1ccc(OCc2ccc(COc3ccc(C(=O)OCc4ccccc4)cc3)cc2)cc1`, the melting point was in the range of 154 to 157 °C.

Molecule `COCCc1ccc(OCC(O)CN2CCC(N3CCCNC3=O)CC2)cc1` (stereo not given) gave a melting point of 113 to 115 °C.

For the molecule `O=C1CCC2CC(O)C(=O)N12` (stereo not given), the melting point was 135 to 140 °C.

`CCOC(=O)C1=C(COCC#N)NC(C)=C(C(=O)OC)C1c1ccccc1Cl` (stereo not given) had a melting point of 128 to 130 °C.

`C=C1C=Cc2cc(C(=O)Nc3ccccc3)ccc2OC1` came in with a melting point of 139 °C.

Consider `COc1ccc(C2Sc3cc(Cl)ccc3NC(=O)C2=O)cc1` (stereo not given), for which the melting point was in the range of 168 to 169 °C.

With `O=C(O)Cc1cc(C(=O)c2ccccc2)cc(Cl)c1O`, the melting point amounted to 131 °C.

With `CS(=O)(=O)c1ccc(-c2cnn(-c3ccc(F)c(Cl)c3)c(=O)c2-c2ccc(F)cc2)cc1`, the melting point was in the range of 155 to 157 °C.

`CC(Cc1c[nH]c2ccccc12)(NC(=O)OC1C2CC3CC(C2)CC1C3)C(=O)NCCc1ccccn1` (stereo not given) yielded a melting point of 89 to 91 °C.

In turn, `CO[C@]1(c2csc(Sc3ccc(/C(C)=N/O)cc3)c2)CCO[C@@H]1C` (racemic) returned a melting point of 89 to 90 °C.

`COC(=O)c1coc(CN2C(=O)C3(COc4cc5c(cc43)OCO5)c3ccccc32)n1` (stereo not given) yielded a melting point of 183 to 185 °C.

For the molecule `CCCC=Cc1c(C(C)C)nc(C(C)C)c(CO)c1-c1ccc(S(C)=O)cc1` (stereo not given), the melting point lay within 133 to 135 °C.

In turn, `Cc1ccccc1C1c2ccccc2S(=O)(=O)N1C` (single isomer, unassigned; (+)) returned a melting point of 152 °C.

As for `CC(CC(=O)NC(Cc1c[nH]c2ccccc12)C(=O)CCc1cc(C(F)(F)F)cc(C(F)(F)F)c1)c1ccccc1` (stereo not given), the melting point fell in the range of 133 to 137 °C.

Turning to `O=C(Nc1ccc(Br)cc1)N1CCN2CCC1CC2`, the melting point lay in the range of 228 to 231 °C.

Regarding `COC12CC(CO)CN(C)C1Cc1cn(C(C)(C)C)c3cccc2c13` (stereo not given), the melting point lay in the range of 172 to 174 °C.

Turning to `Brc1ccc(Oc2ccc(-n3ccnc3)nn2)cc1`, the melting point was found to be 168 °C.

`C=C1CCN(c2cn(-c3cccnc3)nc2Cl)C1=O` registered a melting point of 117 to 118 °C.

As for `COc1cc(C(=O)C=Cc2ccc(Br)cc2)ccc1OC1CCCCO1` (stereo not given), the melting point lay within 142 to 145 °C.

`CCOC(=O)C(=O)N1Cc2cc(OC)ccc2C(Cc2c(Cl)cncc2Cl)=N1` came in with a melting point of 140 to 142 °C.

As to `Cn1c(=O)c(N=C=O)c(-c2ccccc2Cl)c2cc(Cl)ccc21`, the melting point fell in the range of 204 to 206 °C.

In the case of `Nc1nc(N)nc(-c2ccc3c(c2)OC(F)(F)C(F)(F)O3)n1`, the melting point fell in the range of 176 to 179 °C.

`C#CC[C@H]1CC[C@H](CO)CC1`: the melting point fell in the range of 106 to 108 °C.

For `COc1cc(C(=O)Cl)ccc1S(=O)(=O)Cl`, the melting point was in the range of 86 to 88 °C.

The molecule `O=C(OCC=C(c1ccccc1)[N+](=O)[O-])C(F)(F)C(F)(F)C(F)(F)C(F)(F)C(F)(F)C(F)(F)C(F)(F)F` registered a melting point of 79 to 81 °C.

Consider `NN=CNc1nc(CSCCN=CNS(=O)(=O)c2ccc(Br)cc2)cs1`, for which the melting point lay within 107 to 110 °C.

As for `CCNc1ccc(C(=O)CBr)cc1S(N)(=O)=O`, the melting point was in the range of 156 to 157 °C.

On to `COc1ccc2cc([C@H](C)C(=O)NNC(=O)CCCO)ccc2c1`, for which the melting point was in the range of 149 to 151 °C.

Take `CCOC(=O)c1ccc(/C=C(\C)c2ccc3c(c2)C(C)(C)CC3(C)C)cc1`: the melting point lay in the range of 70 to 71 °C.

In turn, `Cn1nc(-c2c(F)cccc2Cl)nc1C(C)(O)c1ccc(Cl)cc1` (stereo not given) displayed a melting point of 198 to 200 °C.

The molecule `O=C(CC1CCOCC1)Oc1cc(=O)n(-c2ccccc2)c2ncccc12` yielded a melting point of 169 to 171 °C.

Turning to `CCC1(CC)CCNC1=O`, the melting point lay in the range of 52 to 53 °C.

Molecule `CCC(CCCc1cc(OC)c(OC)c(OC)c1)(c1cccs1)N(C)C` (stereo not given) yielded a melting point of 62 to 63 °C.

As for `O=C1COc2ccc(Br)cc2N1O`, the melting point was in the range of 201 to 204 °C.

The molecule `Cc1c(C)c(CC(C)(C)C#N)c(C)c(C)c1CC(C)(C)C#N` returned a melting point of 187 to 190 °C.

In turn, `CC(C)(C)c1ccc(OC2CCOC2)c(N)c1` (stereo not given) showed a melting point of 79 to 82 °C.

`Cn1ncnc1COc1nc2c(cc1C1CCC1)nnn2-c1ccccc1F` yielded a melting point of 120 to 122 °C.

`O=C(CC(O)c1ccncc1)c1ccccc1O` (stereo not given) had a melting point of 150 °C.

In the case of `CC1NC2(c3ccccc3)c3ccccc3C(=O)N2C1C` (stereo not given), the melting point lay in the range of 162 to 164 °C.

For the molecule `CC(=O)Oc1cc([N+](=O)[O-])ccc1CBr`, the melting point was in the range of 76.5 to 78 °C.

Molecule `Cc1cc2c(cc1F)N(C(N)=O)C(=O)C2` returned a melting point of 200 to 203 °C.

For `CCOC(=O)N1CCN(C(=O)c2sc(NC(C)=O)nc2CCc2ccc(NC(=N)N)cc2)CC1`, the melting point lay in the range of 180 to 182 °C.

`CCOC(=O)Cc1c(C(=O)OCC)c(C)cn1CCOS(C)(=O)=O`: the melting point was in the range of 66 to 68 °C.

As to `CCCCCc1cc2c(cc1/C=C/C=C/C(C)=C/C(=O)O)C(C)(C)CCC2(C)C`, the melting point was in the range of 164 to 166 °C.

Turning to `CCOC(=O)C1=Cc2cc(-c3ccc(C)cc3)ccc2OC1C` (stereo not given), the melting point fell in the range of 82 to 84 °C.

As to `OC1CCCCc2cc(OCC3CCCCC3)ccc21` (stereo not given), the melting point lay within 102 to 103 °C.

Turning to `CN1CC(C(=O)COC(=O)C(C)(C)C)CC2c3cccc4[nH]cc(c34)CC21` (stereo not given), the melting point lay within 155 to 156 °C.

`Cc1ccc(C2CCN(C(=O)CCC(=O)c3ccc4c(c3)CCN(C)CC4)CC2)cc1` gave a melting point of 111 to 112 °C.

Take `Brc1ccc2c(C3CCNCC3)n[nH]c2c1`: the melting point was 163 to 165 °C.

`CC(=S)NC[C@H]1CN(c2ccc3c(c2)CCCc2cnoc2-3)C(=O)O1` had a melting point of 185 to 195 °C.

The molecule `CC(C)OP(=O)(COCCOc1nc(N)nc(N)c1C=O)OC(C)C` came in with a melting point of 225 to 227 °C.

Regarding `Clc1nccnc1NCCOc1ccccc1`, the melting point was 51 to 53 °C.

Molecule `Cc1c(C(F)(F)F)cc([N+](=O)[O-])c(Cl)c1[N+](=O)[O-]` showed a melting point of 81 to 82 °C.

As to `CC(O)c1cnc(C(F)(F)F)nc1` (stereo not given), the melting point is 43 to 45 °C.

`CCNc1nc(OC)c(C(=O)NCC2CCCN2C2CCCCC2)nc1Cl` (stereo not given) yielded a melting point of 164 to 165 °C.

In turn, `CN(Cc1ccccc1)C1CCN(C(=O)c2ccc(-n3cncn3)cc2)CC1` came in with a melting point of 168 to 169 °C.

Molecule `COc1ccc(N)c(-c2ccc3cc(OC)c(OC)cc3c2)c1` returned a melting point of 158 to 160 °C.

`O=c1cc(-c2ccncc2)nc2n1CCOCC2` returned a melting point of 156 to 159 °C.

Turning to `CC1(O)OC(=O)C(c2c(F)cc(F)cc2F)=C1c1ccc2ccccc2c1` (stereo not given), the melting point fell in the range of 164 to 165 °C.

With `CCOC(=O)C(C#N)=NOC(=O)OC`, the melting point lay within 69 to 71 °C.

The molecule `CC(C)(C)c1cc(C=Nn2ccnc2N2CCOCC2)cc(C(C)(C)C)c1O` came in with a melting point of 185 to 187 °C.

Molecule `O=c1[nH]c2ccccc2c2c(CO)c(CO)nn12` returned a melting point of 247 to 250 °C.

As to `N#Cc1cccnc1N1CCN(CC(=O)Nc2ccccc2)CC1`, the melting point was in the range of 110 to 112 °C.

Take `O=c1oc2cc(Oc3nnnn3-c3ccccc3)ccc2c2c1CN(Cc1ccccc1)CC2`: the melting point was 165 to 166 °C.

`CCc1nnc(C(Cc2ccc(OCCc3nc(-c4ccccc4)oc3C)cc2)c2ccccc2)o1` (stereo not given) had a melting point of 110 °C.

In turn, `Cn1ccc2ccc(/C=C/CN3CCN(C4c5ccccc5CCc5ncccc54)CC3)cc21` (stereo not given) yielded a melting point of 168 to 170 °C.

In turn, `CN1c2ccc(Cl)cc2C(c2ccccc2Cl)=Nc2cccnc21` displayed a melting point of 150 to 152 °C.

Take `Nc1ccc(NC(=O)Nc2cccc(C(F)(F)F)c2)c(O)c1`: the melting point is 200 to 202 °C.

`COP(=O)(Cc1ccc([N+](=O)[O-])c2ccccc12)OC`: the melting point fell in the range of 128 to 129 °C.

Turning to `Cc1nc2ccccc2n(-c2ccc(N(C)C)cc2)c1=O`, the melting point fell in the range of 230 to 231 °C.

As to `N#Cc1ccccc1OC[C@@H](O)CNCCOc1ccc2oc(-c3ccon3)cc2c1`, the melting point was 94 to 95 °C.

The molecule `CCCCOc1cc(C(=O)O)cc(S(N)(=O)=O)c1Cc1ccccc1` displayed a melting point of 228 to 229 °C.

A word on the melting point: it is the temperature of the solid-liquid transition.
